Measured values: ChEMBL document CHEMBL1255298, “Larger vancomycin doses (at least four grams per day) are associated with an increased incidence of nephrotoxicity” (Antimicrob Agents Chemother, 2008)

What was measured:
[1] = species: Homo sapiens; test: Nephrotoxicity in patient with gram-positive bacterial infection assessed as serum […] level at > 4 g/day measured within 72 hrs; format: toxicity, organism-based; conditions: in vivo
[2] = species: Homo sapiens; test: Nephrotoxicity in patient with gram-positive bacterial infection assessed as change in serum […] level at > 4 g/day measured within 72 hrs; format: toxicity, organism-based; conditions: in vivo

`CN[C@H](CC(C)C)C(=O)N[C@H]1C(=O)N[C@@H](CC(N)=O)C(=O)N[C@H]2C(=O)N[C@H]3C(=O)N[C@H](C(=O)N[C@H](C(=O)O)c4cc(O)cc(O)c4-c4cc3ccc4O)[C@H](O)c3ccc(c(Cl)c3)Oc3cc2cc(c3O[C@@H]2O[C@H](CO)[C@@H](O)[C@H](O)[C@H]2O[C@H]2C[C@](C)(N)[C@H](O)[C@H](C)O2)Oc2ccc(cc2Cl)[C@H]1O` [VANCOMYCIN] was tested, and the Activity [1] was 2.1 mg/dL and the Activity [2] was 45.6%.
